In brackets after ≈: the same amount, converted by molar mass. Like-named read-outs stand apart in the source and are kept apart here.
Experiments:
E. coli GC 2231 = assay: MIC, broth microdilution; conditions: Escherichia coli
E. coli GC 2232 = assay: MIC, broth microdilution; conditions: Escherichia coli
S. aureus GC 6466 = assay: MIC, broth microdilution; conditions: Staphylococcus aureus
E. faecium GC 4556 = assay: MIC, broth microdilution; conditions: Enterococcus faecium
S. pyogenes GC 4563 = assay: MIC, broth microdilution; conditions: Streptococcus pyogenes
E. coli GC 2236 = assay: MIC, broth microdilution; conditions: Escherichia coli
E. coli GC 2235 = assay: MIC, broth microdilution; conditions: Escherichia coli
Staph. aureus Smith = assay: In vivo activity (oral, iv; ED50) against Staph. aureus Smith in mice
E. coli GC 2234 = assay: MIC, broth microdilution; conditions: Escherichia coli
S. pneumoniae+ GC 4465 = assay: MIC, broth microdilution; conditions: Streptococcus pneumoniae
S. aureus GC 2216 = assay: MIC, broth microdilution; conditions: Staphylococcus aureus
E. faecalis GC 2242 = assay: MIC, broth microdilution; conditions: Enterococcus faecalis
S. aureus GC 4536 = assay: MIC, broth microdilution; conditions: Staphylococcus aureus
Staph. = assay: Range of MIC for Staph. strains, including MRSA; conditions: Staphylococcus aureus, MRSA
E. faecalis GC 4555 = assay: MIC, broth microdilution; conditions: Enterococcus faecalis
E. coli GC 4559 = assay: MIC, broth microdilution; conditions: Escherichia coli
S. pneumoniae* GC 4465 = assay: MIC, broth microdilution; conditions: Streptococcus pneumoniae
S. typhimurium GC 2172 = assay: MIC, broth microdilution; conditions: Salmonella enterica, TYPHIMURIUM
E. coli = assay: Range of MIC for E. coli strains; conditions: Escherichia coli
S. agalactiae GC 4564 = assay: MIC, broth microdilution; conditions: Streptococcus agalactiae
[1] = read-out: MINIMAL INHIBITORY CONCENTRATION MIC, pre-incubated in Mouse Serum
[2] = read-out: MINIMAL INHIBITORY CONCENTRATION MIC, pre-incubated in Water

MIC (E. coli GC 2231; GC2231, read-out: MINIMAL INHIBITORY CONCENTRATION MIC, pre-incubated in Mouse Serum): 4 µg/mL (≈ 5.14 µM)
MIC (E. coli GC 2231; GC2231, read-out: MINIMAL INHIBITORY CONCENTRATION MIC, pre-incubated in Water): > 64 µg/mL
MIC (E. coli GC 2232; GC2232, read-out: MINIMAL INHIBITORY CONCENTRATION MIC, pre-incubated in Mouse Serum): 1 µg/mL (≈ 1.29 µM)
MIC (E. coli GC 2232; GC2232, read-out: MINIMAL INHIBITORY CONCENTRATION MIC, pre-incubated in Water): > 64 µg/mL
MIC (S. aureus GC 6466; GC6466, read-out: MINIMAL INHIBITORY CONCENTRATION MIC, pre-incubated in Mouse Serum): 0.25 µg/mL (≈ 0.321 µM)
MIC (S. aureus GC 6466; GC6466, read-out: MINIMAL INHIBITORY CONCENTRATION MIC, pre-incubated in Water): 0.25 µg/mL (≈ 0.321 µM)
MIC (E. faecium GC 4556; GC4556, read-out: MINIMAL INHIBITORY CONCENTRATION MIC, pre-incubated in Mouse Serum): 1 µg/mL (≈ 1.29 µM)
MIC (E. faecium GC 4556; GC4556, read-out: MINIMAL INHIBITORY CONCENTRATION MIC, pre-incubated in Water): 4 µg/mL (≈ 5.14 µM)
MIC (S. pyogenes GC 4563; GC4563, read-out: MINIMAL INHIBITORY CONCENTRATION MIC, pre-incubated in Mouse Serum): 0.25 µg/mL (≈ 0.321 µM)
MIC (S. pyogenes GC 4563; GC4563, read-out: MINIMAL INHIBITORY CONCENTRATION MIC, pre-incubated in Water): 0.25 µg/mL (≈ 0.321 µM)
MIC (E. coli GC 2236; GC2236, read-out: MINIMAL INHIBITORY CONCENTRATION MIC, pre-incubated in Mouse Serum): 2 µg/mL (≈ 2.57 µM)
MIC (E. coli GC 2236; GC2236, read-out: MINIMAL INHIBITORY CONCENTRATION MIC, pre-incubated in Water): > 64 µg/mL
MIC (E. coli GC 2235; GC2235, read-out: MINIMAL INHIBITORY CONCENTRATION MIC, pre-incubated in Mouse Serum): 1 µg/mL (≈ 1.29 µM)
MIC (E. coli GC 2235; GC2235, read-out: MINIMAL INHIBITORY CONCENTRATION MIC, pre-incubated in Water): 64 µg/mL (≈ 82.3 µM)
MIC (E. coli GC 2234; GC2234, read-out: MINIMAL INHIBITORY CONCENTRATION MIC, pre-incubated in Mouse Serum): 1 µg/mL (≈ 1.29 µM)
MIC (E. coli GC 2234; GC2234, read-out: MINIMAL INHIBITORY CONCENTRATION MIC, pre-incubated in Water): > 64 µg/mL
MIC (S. pneumoniae+ GC 4465; [1]): 4 µg/mL (≈ 5.14 µM)
MIC (S. pneumoniae+ GC 4465; [2]): 4 µg/mL (≈ 5.14 µM)
MIC (S. aureus GC 2216; GC2216, read-out: MINIMAL INHIBITORY CONCENTRATION MIC, pre-incubated in Mouse Serum): 0.5 µg/mL (≈ 0.643 µM)
MIC (S. aureus GC 2216; GC2216, read-out: MINIMAL INHIBITORY CONCENTRATION MIC, pre-incubated in Water): 0.5 µg/mL (≈ 0.643 µM)
MIC (E. faecalis GC 2242; GC2242, read-out: MINIMAL INHIBITORY CONCENTRATION MIC, pre-incubated in Mouse Serum): 2 µg/mL (≈ 2.57 µM)
MIC (E. faecalis GC 2242; GC2242, read-out: MINIMAL INHIBITORY CONCENTRATION MIC, pre-incubated in Water): 4 µg/mL (≈ 5.14 µM)
MIC (S. aureus GC 4536; GC4536, read-out: MINIMAL INHIBITORY CONCENTRATION MIC, pre-incubated in Mouse Serum): 0.25 µg/mL (≈ 0.321 µM)
MIC (S. aureus GC 4536; GC4536, read-out: MINIMAL INHIBITORY CONCENTRATION MIC, pre-incubated in Water): 0.5 µg/mL (≈ 0.643 µM)
MIC (Staph.; read-out: Range of MIC, Staph (Mouse Serum)): 0.25 to 1 µg/mL (≈ 0.321 to 1.29 µM)
MIC (Staph.; read-out: Range of MIC, Staph (Water)): 0.25 to 4 µg/mL (≈ 0.321 to 5.14 µM)
MIC (Staph.; read-out: Range of MIC, Staph. (mouse serum)): 0.25 to 1 µg/mL (≈ 0.321 to 1.29 µM)
MIC (Staph.; read-out: Range of MIC, Staph. (water)): 0.25 to 4 µg/mL (≈ 0.321 to 5.14 µM)
MIC (E. faecalis GC 4555; GC4555, read-out: MINIMAL INHIBITORY CONCENTRATION MIC, pre-incubated in Mouse Serum): 1 µg/mL (≈ 1.29 µM)
MIC (E. faecalis GC 4555; GC4555, read-out: MINIMAL INHIBITORY CONCENTRATION MIC, pre-incubated in Water): 4 µg/mL (≈ 5.14 µM)
MIC (E. coli GC 4559; GC4559, read-out: MINIMAL INHIBITORY CONCENTRATION MIC, pre-incubated in Mouse Serum): 2 µg/mL (≈ 2.57 µM)
MIC (E. coli GC 4559; GC4559, read-out: MINIMAL INHIBITORY CONCENTRATION MIC, pre-incubated in Water): > 64 µg/mL
MIC (S. pneumoniae* GC 4465; [1]): 0.25 µg/mL (≈ 0.321 µM)
MIC (S. pneumoniae* GC 4465; [2]): 0.25 µg/mL (≈ 0.321 µM)
MIC (S. typhimurium GC 2172; [1]): 16 µg/mL (≈ 20.6 µM)
MIC (S. typhimurium GC 2172; [2]): > 64 µg/mL
MIC (E. coli; 20 h, read-out: Range of MIC, E. coli (Mouse Serum)): 1 to 4 µg/mL (≈ 1.29 to 5.14 µM)
MIC (E. coli; read-out: Range of MIC, E. coli (mouse serum)): 1 to 4 µg/mL (≈ 1.29 to 5.14 µM)
MIC (S. agalactiae GC 4564; GC4564, read-out: MINIMAL INHIBITORY CONCENTRATION MIC, pre-incubated in Mouse Serum): 1 µg/mL (≈ 1.29 µM)
MIC (S. agalactiae GC 4564; GC4564, read-out: MINIMAL INHIBITORY CONCENTRATION MIC, pre-incubated in Water): 2 µg/mL (≈ 2.57 µM)
SMILES: CCCN(CC(=O)Nc1cc(N(C)C)c2c(c1O)C(=O)C1=C(O)[C@]3(O)C(=O)C(C(N)=O)=C(O)[C@@H](N(C)C)[C@@H]3C[C@@H]1C2)C(=O)OCOC(=O)c1cc(C)cc(C)c1 [Example 26, ({[(2-{[(5aR,6aS,7S,10aS)-9-(aminocarbonyl)-4,7-bis(dimethylamino)-1,8,10a,11-tetrahydroxy-10,12-dioxo-5,5a,6,6a,7,10,10a,12-octahydrotetracen-2-yl]amino}-2-oxoethyl)(propyl)amino]carbonyl}oxy)methyl 3,5-dimethylbenzoate]
ED50 (Staph. aureus Smith; Staphylococcus aureus, in Mus musculus, iv, read-out: ED50 SIV (Staph aureus Smith)): 0.43 mg/kg
ED50 (Staph. aureus Smith; Staphylococcus aureus, in Mus musculus, po, read-out: ED50 SOD (Staph aureus Smith)): 8.79 mg/kg
ED50 (Staph. aureus Smith; Staphylococcus aureus, in Mus musculus, po, read-out: ED50 Staph Smith SOD): 8.79 mg/kg
ED50 (Staph. aureus Smith; iv, read-out: ED50 Staph Smith SIV): 0.43 mg/kg

From US20070049564A1 (Wyeth, priority 2005, published 2007)
